From US7846928B2, “Substituted pyrazolopyridines and salts thereof, pharmaceutical compositions comprising same, methods of preparing same and uses of same” (Bayer Schering Pharma AG, priority 2006, dated 2010) come the findings set out here.

The target of test [1] is T1, human insuline receptor (Ins-R) kinase domain (Homo sapiens, UniProt P06213).
T1 construct: GST-tagged recombinant kinase domain of the human insuline receptor; GST; purchased ProQinase, Freiburg, Germany; host or cells: SF-9 cells
Put plainly: InsR HTRF assay (assay 4). The test is classed as biochemical. Particulars: IC50 assay 4/IC50 assay 2. On the procedure: Inhibitory activity of compounds against the kinase activity of the insulin receptor was quantified employing the Ins-R HTRF assay as described in the following paragraphs.
GST-tagged recombinant kinase domain of the human insuline receptor (Ins-R, purchase from ProQinase, Freiburg, Germany) expressed in SF-9 cells was used as kinase. As substrate for the kinase reaction biotinylated poly-(Glu,Tyr) (Cis biointernational, France) was used.
Ins-R was incubated for 20 min at 22° C. in the presence of different concentrations of test compounds in 5 μl assay buffer [50 mM Hepes/NaOH pH 7, 15 mM MnCl2, 1 mM dithiothreitol, 0.1 μM sodium ortho-vanadate, 0.015% (v/v) PEG20000, 10 μM adenosine-tri-phosphate (ATP), 0.3 μg/ml substrate, 1% (v/v) dimethylsulfoxide]. The concentration of Ins-R was adjusted depending of the activity of the enzyme lot and was chosen appropriate to have the assay in the linear range, typical concentrations were in the range of 10 pg/μl. The reaction was stopped by the addition of 5 μl of a solution of HTRF detection reagents (0.1 μM streptavidine-XLent and 1 nM PT66-Eu-Chelate, an europium-chelate labelled anti-phosphotyrosine antibody from Perkin Elmer) in an aqueous EDTA-solution (80 mM EDTA, 0.2% (w/v) bovine serum albumin in 50 mM HEPES/NaOH pH 7.0).
The resulting mixture was incubated 1 h at 22° C. to allow the binding of the biotinylated phosphorylated peptide to the streptavidine-XLent and the PT66-Eu-Chelate. Subsequently the amount of phosphorylated substrate was evaluated by measurement of the resonance energy transfer from the PT66-Eu-Chelate to the streptavidine-XLent. Therefore, the fluorescence emissions at 620 nm and 665 nm after excitation at 350 nm was measured in a HTRF reader, e.g. a Rubystar (BMG Labtechnologies, Offenburg, Germany) or a Viewlux (Perkin-Elmer). The ratio of the emissions at 665 nm and at […] was taken as the measure for the amount of phosphorylated substrate. The data were normalised (enzyme reaction without inhibitor=0% inhibition, all other assay components but no enzyme=100% inhibition) and IC50 values were calculated by a 4 parameter fit using an inhouse software.
In general terms: In TR-FRET formats the signal depends on donor and acceptor labels being close together.

The next test concerns the target Tie2 (Homo sapiens, UniProt Q02763). Put plainly: Tie2 ELISA assay (assay 1): cellular Tie2 autophosphorylation in Tie2-transfected CHO cells stimulated by angiopoietin-2. The settings on record: CHO Tie2/DHFR cells, Ang2 stimulated, Tie2 autophosphorylation sandwich-ELISA; pIC50 = -log IC50 molar; read-out: Tie 2 activity (assay 1). The arrangement: expressed in transfected cells; host or cells: CHO (DHFR-deficient), stably transfected: CHO Tie2/DHFR. The test is classed as cell-based. How it is done:
Cellular activity of compounds of the present invention as inhibitors of Tie2 kinase activity was measured employing a Tie2 ELISA assay as described in the following paragraphs. Herein CHO cell-cultures, which are stably transfected by known techniques with Tie2 using DHFR deficiency as selection marker, are stimulated by angiopoietin-2. The specific autophosphorylation of Tie2 receptors is quantified with a sandwich-ELISA using anti-Tie2 antibodies for catch and anti-phosphotyrosine antibodies coupled to HRP for detection.
• 96 well tissue culture plate, sterile, Greiner • 96 well FluoroNunc plate MaxiSorp Surface C, Nunc • 96 well plate polypropylene for compound dilution in DMSO • CHO Tie2/DHFR (transfected cells) • PBS−; PBS++, DMSO • MEM alpha Medium with Glutamax-I without Ribonucleosides and • Deoxyribonucleosides (Gibco #32561-029) • with 10% FCS after dialysis! and 1% PenStrep • Lysis buffer: 1 Tablet “Complete” protease inhibitor • 1 cap Vanadate (1 mL>40 mg/mL; working solution 2 mM) • ad 50 mL with Duschl-Puffer • pH 7.6 • Anti-Tie2-antibody 1:425 in Coating Buffer pH 9.6 • Stock solution: 1.275 mg/mL>working: 3 μg/mL • PBST: 2 bottles PBS(10×)+10 ml Tween, fill up with VE-water • RotiBlock 1:10 in VE-water • Anti-Phosphotyrosine HRP-Conjugated 1:10000 in 3% TopBlock • 3% TopBlock in PBST • BM Chemiluminescence ELISA Substrate (POD) • solution B1:100 solution A • SF9 cell culture medium • Ang2-Fc in SF9 cell culture medium Cell Experiment: • Dispense 5×10^4 cells/well/98 μL in 96 well tissue culture plate • Incubate at 37° C./5% CO2 • After 24 h add compounds according to desired concentrations • Add also to control and stimulated values without compounds 2 μL DMSO • And mix for a few min at room temperature • Add 100 μL Ang2-Fc to all wells except control, which receives insect medium • Incubate 20 min at 37° C. • Wash 3× with PBS++ • Add 100 μl Lysis buffer/well and shake a couple of min at room temperature • Store lysates at 20° C. before utilizing for the ELISA Performance of Sandwich-ELISA • Coat 96 well FluoroNunc Plate MaxiSorp Surface C with anti-Tie2 mAb • 1:425 in Coating buffer pH 9.6; 100 μL/well overnight at 4° C. • Wash 2× with PBST • Block plates with 250 μL/well RotiBlock 1:10 in VE-water • Incubate for 2 h at room temperature or overnight at 4° C. shaking • Wash 2× in PBST • Add thawed lysates to wells and incubate overnight shaking at 4° C. • Wash 2× with PBST • Add 100 μL/well anti-Phosphotyrosine HRP-Conjugated 1:10000 in 3% • TopBlock (3% TopBlock in PBST) and incubate overnight under shaking • Wash 6× with PBST • Add 100 μL/well BM Chemiluminescence ELISA Substrate (POD) • solutions 1 und 2 (1:100) • Determine luminescence with the LumiCount. Assay 2: Tie-2-Kinase HTRF-Assay without Kinase Preactivation
In general terms: An ELISA detects its analyte on a solid surface through an enzyme-linked reagent.

Sequence of Tie2 (Q02763 23-1124): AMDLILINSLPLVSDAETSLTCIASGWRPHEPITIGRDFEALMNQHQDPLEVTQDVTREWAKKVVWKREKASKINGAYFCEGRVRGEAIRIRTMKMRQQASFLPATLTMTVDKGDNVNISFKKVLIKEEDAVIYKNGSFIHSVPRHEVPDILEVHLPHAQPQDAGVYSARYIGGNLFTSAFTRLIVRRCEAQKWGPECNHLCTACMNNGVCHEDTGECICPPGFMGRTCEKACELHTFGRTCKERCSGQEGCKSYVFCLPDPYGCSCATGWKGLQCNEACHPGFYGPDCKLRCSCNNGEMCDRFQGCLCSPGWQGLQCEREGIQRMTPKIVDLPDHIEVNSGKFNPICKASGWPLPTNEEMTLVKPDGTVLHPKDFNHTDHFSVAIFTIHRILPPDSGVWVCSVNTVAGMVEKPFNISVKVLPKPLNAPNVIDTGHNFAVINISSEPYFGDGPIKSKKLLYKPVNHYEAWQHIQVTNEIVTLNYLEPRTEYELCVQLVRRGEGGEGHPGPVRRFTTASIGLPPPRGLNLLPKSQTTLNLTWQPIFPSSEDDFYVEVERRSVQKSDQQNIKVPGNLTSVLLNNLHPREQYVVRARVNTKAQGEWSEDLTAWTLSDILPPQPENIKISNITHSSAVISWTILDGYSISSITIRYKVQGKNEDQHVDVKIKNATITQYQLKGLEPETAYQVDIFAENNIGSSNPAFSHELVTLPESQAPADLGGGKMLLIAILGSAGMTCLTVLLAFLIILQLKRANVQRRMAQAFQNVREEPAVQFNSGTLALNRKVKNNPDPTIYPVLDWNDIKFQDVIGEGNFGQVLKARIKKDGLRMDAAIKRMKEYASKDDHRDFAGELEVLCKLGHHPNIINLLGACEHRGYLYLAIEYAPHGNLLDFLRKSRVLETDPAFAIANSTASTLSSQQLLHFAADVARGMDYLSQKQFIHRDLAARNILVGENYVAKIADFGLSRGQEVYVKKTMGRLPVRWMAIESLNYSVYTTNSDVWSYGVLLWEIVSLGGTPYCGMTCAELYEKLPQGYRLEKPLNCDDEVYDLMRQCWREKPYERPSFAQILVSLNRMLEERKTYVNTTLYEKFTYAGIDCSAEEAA
T1 sequence (P06213 1023-1298 limits assumed): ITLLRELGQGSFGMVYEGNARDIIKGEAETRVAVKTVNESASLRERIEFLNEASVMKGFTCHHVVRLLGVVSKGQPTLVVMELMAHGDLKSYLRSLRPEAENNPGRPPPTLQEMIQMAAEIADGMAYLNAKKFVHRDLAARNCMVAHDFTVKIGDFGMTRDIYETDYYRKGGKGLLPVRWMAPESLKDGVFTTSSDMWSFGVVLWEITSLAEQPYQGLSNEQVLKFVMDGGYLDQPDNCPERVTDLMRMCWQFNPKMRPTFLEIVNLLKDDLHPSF

Consider `Cc1cc(-c2ccc(NC(=O)Nc3cc(F)cc(C(F)(F)F)c3)cc2)c2cnn(C)c2n1` [2.4, 1-[4-(1,6-Dimethyl-1H-pyrazolo[3,4-b]pyridin-4-yl)-phenyl]-3-(3-fluoro-5-trifluoromethyl-phenyl)-urea], for which the “Selectivity vs. InsR” value in test [1] is reported as over 20 fold. The IC50 at Tie2 was under 0.501 µM.
For `Cc1cc(-c2ccc(NC(=O)Nc3ccc(F)c(C(F)(F)F)c3)cc2)c2cnn(C)c2n1` [2.5, 1-[4-(1,6-Dimethyl-1H-pyrazolo[3,4-b]pyridin-4-yl)-phenyl]-3-(4-fluoro-3-trifluoromethyl-phenyl)-urea], in test [1], the “Selectivity vs. InsR” value is recorded as over 20 fold. Moreover, the IC50 on Tie2 lay within 0.501 to 1 µM.
As to `COc1ccc(C(F)(F)F)cc1NC(=O)Nc1ccc(-c2cc(C)nc3c2cnn3C)cc1` [2.7, 1-[4-(1,6-Dimethyl-1H-pyrazolo[3,4-b]pyridin-4-yl)-phenyl]-3-(2-methoxy-5-trifluoromethyl-phenyl)-urea], the “Selectivity vs. InsR” value in test [1] is recorded as over 20 fold. Besides, the IC50 on Tie2 was under 0.501 µM.
For `Cn1ncc2c(-c3ccc(NC(=O)Nc4cccc(C(F)(F)F)c4)cc3)cc(CN3CCOCC3)nc21` [3.2, 1-[4-(1-Methyl-6-morpholin-4-ylmethyl-1H-pyrazolo[3,4-b]pyridin-4-yl)-phenyl]-3-(3-trifluoromethyl-phenyl)-urea], the “Selectivity vs. InsR” value in test [1] is over 20 fold. In addition, at Tie2, the IC50 was under 0.501 µM.
Turning to `CCc1cccc(NC(=O)Nc2ccc(-c3cc(CN4CCOCC4)nc4c3cnn4C)cc2)c1` [3.4, 1-(3-Ethyl-phenyl)-3-[4-(1-methyl-6-morpholin-4-ylmethyl-1H-pyrazolo[3,4-b]pyridin-4-yl)-phenyl]-urea], the “Selectivity vs. InsR” value in test [1] is reported as over 20 fold. In addition, on Tie2, the IC50 is under 0.501 µM.
With `Cc1ccc(F)c(NC(=O)Nc2ccc(-c3cc(CN4CCOCC4)nc4c3cnn4C)cc2)c1` [3.5, 1-(2-Fluoro-5-methyl-phenyl)-3-[4-(1-methyl-6-morpholin-4-ylmethyl-1H-pyrazolo[3,4-b]pyridin-4-yl)-phenyl]-urea], in test [1], the “Selectivity vs. InsR” value is on record as over 20 fold. Besides, the IC50 on Tie2 is under 0.501 µM.
